Test results reported in patent publication US5049685A, “Nuclear substituted salicylic acids and their salts” (Sanko Kaihatsu Kagaku Kenkyusho, priority 1988, dated 1991).

Legend:
[1] = Solubility in water (four-stage evaluation); format: physicochemical
[2] = Solubility in toluene (four-stage evaluation); format: physicochemical

| solubility [1] | SMILES | Solubility in Toluene [2] | Solubility in Water [1] |
| --- | --- | --- | --- |
| > 500 mg/mL | Cc1c(C(C)(C)c2ccccc2)cc(C(C)(C)C)c(O)c1C(=O)O [2-2 Sodium] |  |  |
| 200 to 500 mg/mL | Cc1cc(C(C)(C)c2ccccc2)cc(C(=O)O)c1O [(2) Sodium, 3-methyl-5-(α, α-dimethylbenzyl)salicylic acid, reference compound] |  |  |
|  | Cc1c(C(C)(C)C)cc(C(C)(C)c2ccccc2)c(O)c1C(=O)O [5-3 Free Acid] | .circleincircle. (solubility =not less than 50%) |  |
|  | Cc1c(C(C)(C)C)cc(C(C)(C)C)c(O)c1C(=O)O [1 Free Acid] | .largecircle. (solubility =not less than 20% to less than 50%) |  |
| > 500 mg/mL | CCC(C)(C)c1cc(C(C)(C)CC)c(O)c(C(=O)O)c1C [3-2 Sodium] |  |  |
|  | Cc1c(C(C)(C)c2ccccc2)cc(C(C)(C)C)c(O)c1C(=O)O [2-2 Morpholine] | .largecircle. (solubility =not less than 20% to less than 50%) | .circleincircle. (solubility =not less than 50%) |
|  | Cc1c(C(C)(C)C)cc(C(C)(C)c2ccccc2)c(O)c1C(=O)O [5-3 Morpholine] | .largecircle. (solubility =not less than 20% to less than 50%) | .circleincircle. (solubility =not less than 50%) |
|  | CCC(C)(C)c1cc(C(C)(C)CC)c(O)c(C(=O)O)c1C [3-2 Free Acid] | .largecircle. (solubility =not less than 20% to less than 50%) |  |
|  | Cc1c(C(C)(C)C)cc(C(C)(C)CC(C)(C)C)c(O)c1C(=O)O [4-3 Morpholine] | .largecircle. (solubility =not less than 20% to less than 50%) | .circleincircle. (solubility =not less than 50%) |
| > 500 mg/mL | Cc1c(C(C)(C)C)cc(C(C)(C)c2ccccc2)c(O)c1C(=O)O [5-3 Sodium] |  |  |
| > 500 mg/mL | Cc1c(C(C)(C)C)cc(C(C)(C)C)c(O)c1C(=O)O [1 Sodium] |  |  |
| > 500 mg/mL | Cc1c(C(C)(C)C)cc(C(C)(C)CC(C)(C)C)c(O)c1C(=O)O [4-3 Sodium] |  |  |
|  | Cc1cc(C(C)(C)c2ccccc2)c(C)c(C(=O)O)c1O [11-2 Free Acid] | .largecircle. (solubility =not less than 20% to less than 50%) |  |
|  | Cc1c(C(C)(C)c2ccccc2)cc(C(C)(C)C)c(O)c1C(=O)O [2-2 Free Acid] | .circleincircle. (solubility =not less than 50%) |  |
| > 500 mg/mL | Cc1cc(C(C)(C)c2ccccc2)c(C)c(C(=O)O)c1O [11-2 Sodium] |  |  |
| > 500 mg/mL | C1COCCN1 [1 Morpholine] | .largecircle. (solubility =not less than 20% to less than 50%) |  |
|  | Cc1c(C(C)(C)c2ccccc2)cc(C(C)C)c(O)c1C(=O)O [12-2 Free Acid] | .circleincircle. (solubility =not less than 50%) |  |
|  | Cc1cc(C(C)(C)c2ccccc2)cc(C(=O)O)c1O [(2) Free Acid, 3-methyl-5-(α,α-dimethyllbenzyl)salicylic acid, reference compound] | Δ (solubility =not less than 5% to less than 20%) |  |
| > 500 mg/mL | Cc1c(C(C)(C)c2ccccc2)cc(C(C)C)c(O)c1C(=O)O [12-2 Sodium] |  |  |
|  | Cc1c(C(C)(C)C)cc(C(C)(C)CC(C)(C)C)c(O)c1C(=O)O [4-3 Free Acid] | .circleincircle. (solubility =not less than 50%) |  |
